{"source": "patent US20240350448A1", "about": "“DICHLOROACETIC ACID CONJUGATING DIPHENYL ETHANE COMPOUND, AND PREPARATION METHOD AND APPLICATION THEREOF” (SHANGHAI ECUSTBIOMEDICINECOMPANY LTD., priority 2021, published 2024)", "key": {"[1]": {"tested_on": "HepG2 cell strain", "assay": "In-vitro inhibitory activity against proliferation of tumor cells (CCK8, inhibition rate)", "assay_type": "cell-based, human", "settings": "for inhibition at 0.1 µM / inhibition at 1 µM / inhibition at 10 µM: Homo sapiens, 72 hours", "protocol": "(§1) Take cells in logarithmic growth phase for experiments. Digest and count the cells, then make them into a cell suspension in 1×10^5 cells/mL, next seed the cell suspension in a 96-hole plate (100 μL per hole), then place the plate in a 5% CO2 incubator at 37° C. to be incubated for 24 hours. Add a subject with a corresponding concentration into each hole, and concurrently set up a negative control group and a blank group, each of which has 3 holes. After having placed the plate in the incubator for 72 hours, observe the morphologies of cells in each group under a microscope, then add a 10 μL CCK8 solution to each hole, and continue incubating the cells in the incubator for 4 h. Measure the absorbance value at 450 nm, and calculate the inhibition rate of cell proliferation; if P<0.05, the results have statistical significance."}, "[2]": {"tested_on": "human hepatoma cell HepG2 xenotransplantation tumor", "assay": "Gavage administration, inhibition of xenografted tumors of tumor-bearing nude mice", "assay_type": "in vivo", "settings": "14 times; for Tumor weight: day 15; for Inhibition rate(%): tumor weight vs model group", "description": "Inoculate the human hepatoma cell strain HepG2 subcutaneously at an armpit of a nude mouse, as to establish a human hepatoma cell HepG2 xenotransplantation tumor model. Take the cells HepG2 in logarithmic growth phase, under sterile conditions, inoculate the cells subcutaneously at right armpits of 55 nude mice. Measure the diameter of the xenograft tumors by a vernier caliper, when the tumors grow to about 100 mm^3, choose 48 tumor-bearing nude mice having an uniform tumor size in a good growth status, then randomly divide them into 8 groups, each of which has 6 mice, namely a model group, a 7a low-dosage group (50 mg/kg), a 7a medium-dosage group (100 mg/kg), a 7a high-dosage group (150 mg/kg), and a sorafenib group (50 mg/kg). Share an isovolumic solvent among the mice in the model group through gavage, administer drugs through gavage once a day. Administer drugs in the 7a low-dosage group, the 7a medium-dosage group, and the 7a high-dosage group once a day at 50 mg/kg, 100 mg/kg, and 150 mg/kg, respectively, to reach 14 times administration in total. Administer drugs in the sorafenib group once a day at 50 mg/kg, to reach 14 times administration in total. Dynamically observe the anti-tumor effect of the subjects by adopting the method of measuring tumor diameters. Measure the tumor diameter on alternate days, while weigh the body weight of nude mice. On the 15th day, kill the mice, then pick away tumor lumps surgically and weigh them, and preserve the tumor tissue in a liquid nitrogen tank, next calculate the tumor inhibition rate (%). Tumor inhibition rate (%)= (tumor weight in the model group-tumor weight in the administration group)/tumor weight in the model group×100%."}, "[3]": {"tested_on": "A549", "assay": "CCK-8 anti-tumor activity, IC50", "assay_type": "cell-based", "settings": "Homo sapiens, 72 hours", "protocol": "as §1, with “hours, measure” for “h. Measure”, “nm. In the test, take cells with 8 concentration gradients respectively, then measure” for “nm, and calculate”, “corresponding to each concentration. Use the GraphPad Prism 5.0 statistical software to treat data, use the t-test software to make a comparison between two groups, and use the One-way Anova (Dunnett) software to make a comparison among multiple groups.” for “of cell proliferation;”, “significance, and then calculate the IC50 value.” for “significance.”"}, "[4]": {"tested_on": "SW480", "assay": "CCK-8 anti-tumor activity, IC50", "assay_type": "cell-based", "settings": "Homo sapiens, 72 hours", "protocol": "as §1, with “hours, measure” for “h. Measure”, “nm. In the test, take cells with 8 concentration gradients respectively, then measure” for “nm, and calculate”, “corresponding to each concentration. Use the GraphPad Prism 5.0 statistical software to treat data, use the t-test software to make a comparison between two groups, and use the One-way Anova (Dunnett) software to make a comparison among multiple groups.” for “of cell proliferation;”, “significance, and then calculate the IC50 value.” for “significance.”"}, "[5]": {"tested_on": "HepG2", "assay": "CCK-8 anti-tumor activity, IC50", "assay_type": "cell-based", "settings": "Homo sapiens", "protocol": "as §1, with “hours, measure” for “h. Measure”, “nm. In the test, take cells with 8 concentration gradients respectively, then measure” for “nm, and calculate”, “corresponding to each concentration. Use the GraphPad Prism 5.0 statistical software to treat data, use the t-test software to make a comparison between two groups, and use the One-way Anova (Dunnett) software to make a comparison among multiple groups.” for “of cell proliferation;”, “significance, and then calculate the IC50 value.” for “significance.”"}, "[6]": {"tested_on": "Hela", "assay": "CCK-8 anti-tumor activity, IC50", "assay_type": "cell-based", "settings": "Homo sapiens", "protocol": "as §1, with “hours, measure” for “h. Measure”, “nm. In the test, take cells with 8 concentration gradients respectively, then measure” for “nm, and calculate”, “corresponding to each concentration. Use the GraphPad Prism 5.0 statistical software to treat data, use the t-test software to make a comparison between two groups, and use the One-way Anova (Dunnett) software to make a comparison among multiple groups.” for “of cell proliferation;”, “significance, and then calculate the IC50 value.” for “significance.”"}, "[7]": {"tested_on": "MCF-7", "assay": "CCK-8 anti-tumor activity, IC50", "assay_type": "cell-based, human", "settings": "for IC50: Homo sapiens, MCF7, MCF-7, 72 hours", "protocol": "as §1, with “hours, measure” for “h. Measure”, “nm. In the test, take cells with 8 concentration gradients respectively, then measure” for “nm, and calculate”, “corresponding to each concentration. Use the GraphPad Prism 5.0 statistical software to treat data, use the t-test software to make a comparison between two groups, and use the One-way Anova (Dunnett) software to make a comparison among multiple groups.” for “of cell proliferation;”, “significance, and then calculate the IC50 value.” for “significance.”"}, "[8]": {"tested_on": "SGC7901", "assay": "CCK-8 anti-tumor activity, IC50", "assay_type": "cell-based, human", "settings": "for IC50: Homo sapiens, SGC-7901, SGC7901, 72 hours", "protocol": "as §1, with “hours, measure” for “h. Measure”, “nm. In the test, take cells with 8 concentration gradients respectively, then measure” for “nm, and calculate”, “corresponding to each concentration. Use the GraphPad Prism 5.0 statistical software to treat data, use the t-test software to make a comparison between two groups, and use the One-way Anova (Dunnett) software to make a comparison among multiple groups.” for “of cell proliferation;”, “significance, and then calculate the IC50 value.” for “significance.”"}, "[9]": {"settings": "read-out: IC50 value against the Hela cells"}}, "note": "Like-named read-outs stand apart in the source and are kept apart here.", "data": [{"smiles": "COc1ccc(CCc2cc(OC)c(OC)c(OC)c2)cc1OC(=O)CCNC(=O)C(Cl)Cl", "note": "[8b, 2-methoxy-5-(3,4,5-trimethoxyphenyletyl) phenyl3-(2,2-dichloroacetamide) propionate]", "values": [{"measurement": "inhibition at 0.1 µM", "setting": "[1]", "result": "37.5 ± 4.49", "unit": "%"}, {"measurement": "inhibition at 1 µM", "setting": "[1]", "result": "55.8 ± 4.37", "unit": "%"}, {"measurement": "inhibition at 10 µM", "setting": "[1]", "result": "74.2 ± 2.41", "unit": "%"}]}, {"smiles": "COc1ccc(CCc2cc(OC)c(OC)c(OC)c2)cc1OC(=O)CNC(=O)C(Cl)Cl", "note": "[8a, 2-methoxy-5-(3,4,5-trimethoxyphenylethyl) phenyl3-(2,2-dichloroacetamide) acetate]", "values": [{"measurement": "inhibition at 0.1 µM", "setting": "[1]", "result": "18.5 ± 1.16", "unit": "%"}, {"measurement": "inhibition at 1 µM", "setting": "[1]", "result": "30 ± 2.03", "unit": "%"}, {"measurement": "inhibition at 10 µM", "setting": "[1]", "result": "45.6 ± 2.53", "unit": "%"}]}, {"smiles": "CNC(=O)c1cc(Oc2ccc(NC(=O)Nc3ccc(Cl)c(C(F)(F)F)c3)cc2)ccn1", "note": "[sorafenib, reference compound]", "values": [{"measurement": "Tumor weight", "setting": "[2]; 50 mg/kg gavage once a day", "result": "0.581 ± 0.089", "unit": "g"}, {"measurement": "Inhibition rate(%)", "setting": "[2]; 50 mg/kg gavage once a day", "result": 59.3, "unit": "%"}]}, {"smiles": "COc1ccc(CCc2cc(OC)c(OC)c(OC)c2)cc1OC(=O)CCCNC(=O)C(Cl)Cl", "note": "[8c, 2-methoxy-5-(3,4,5-trimethoxyphenylethy) phenyl4-(2,2-dichloroacetamide) butyrate]", "values": [{"measurement": "inhibition at 0.1 µM", "setting": "[1]", "result": "36.1 ± 11.7", "unit": "%"}, {"measurement": "inhibition at 1 µM", "setting": "[1]", "result": "68.7 ± 0.72", "unit": "%"}, {"measurement": "inhibition at 10 µM", "setting": "[1]", "result": "89.27 ± 0.66", "unit": "%"}]}, {"smiles": "COc1ccc(CCc2cc(OC)c(OC)c(OC)c2)cc1OC(=O)C(Cl)Cl", "note": "[7a, 2-methoxy-5-(3,4,5-trimethoxyphenylethyl) phenyl 2,2-dichloroacetate]", "values": [{"measurement": "IC50", "setting": "[3]", "result": 726, "unit": "nM"}, {"measurement": "IC50", "setting": "[4]", "result": 940, "unit": "nM"}, {"measurement": "IC50", "setting": "[5]; 72 hours, read-out: IC50", "result": 48.9, "unit": "nM"}, {"measurement": "IC50", "setting": "[5]; read-out: IC50 value against the HepG2 cells", "result": 48.9, "unit": "nM"}, {"measurement": "IC50", "setting": "[6]; 72 hours, read-out: IC50", "result": 516, "unit": "nM"}, {"measurement": "IC50", "setting": "[6]; [9]", "result": 516, "unit": "nM"}, {"measurement": "Tumor weight", "setting": "[2]; 50 mg/kg gavage once a day", "result": "0.569 ± 0.103", "unit": "g"}, {"measurement": "Inhibition rate(%)", "setting": "[2]; 50 mg/kg gavage once a day", "result": 62.0, "unit": "%"}, {"measurement": "Tumor weight", "setting": "[2]; 100 mg/kg gavage once a day", "result": "0.479 ± 0.100", "unit": "g"}, {"measurement": "Inhibition rate(%)", "setting": "[2]; 100 mg/kg gavage once a day", "result": 72.4, "unit": "%"}, {"measurement": "Tumor weight", "setting": "[2]; 150 mg/kg gavage once a day", "result": "0.314 ± 0.076", "unit": "g"}, {"measurement": "Inhibition rate(%)", "setting": "[2]; 150 mg/kg gavage once a day", "result": 86.9, "unit": "%"}, {"measurement": "inhibitory activity against HepG2 cells (in words)", "setting": "[1]", "result": "good inhibitory activity"}, {"measurement": "inhibition at 1 µM", "setting": "[1]", "result": "94.43 ± 0.89", "unit": "%"}, {"measurement": "inhibition at 10 µM", "setting": "[1]", "result": "89.3 ± 1.5", "unit": "%"}, {"measurement": "IC50", "setting": "[7]", "result": 656, "unit": "nM"}, {"measurement": "IC50", "setting": "[8]", "result": 469, "unit": "nM"}]}, {"smiles": "CCOc1ccc(CCc2cc(OC)c(OC)c(OC)c2)cc1OC(=O)C(Cl)Cl", "note": "[7b]", "values": [{"measurement": "inhibitory activity against HepG2 cells (in words)", "setting": "[1]", "result": "better than that of erianin"}, {"measurement": "inhibition at 0.1 µM", "setting": "[1]", "result": "35.7 ± 2.42", "unit": "%"}, {"measurement": "inhibition at 1 µM", "setting": "[1]", "result": "48.4 ± 9.88", "unit": "%"}, {"measurement": "inhibition at 10 µM", "setting": "[1]", "result": "73.7 ± 4.7", "unit": "%"}]}, {"smiles": "COc1ccc(CCc2cc(OC)c(OC)c(OC)c2)cc1OC(=O)CCCCCNC(=O)C(Cl)Cl", "note": "[8d, 2-methoxy-5-(3,4,5-trimethoxyphenylethyl) phenyl6-(2,2-dichloroacetamide) hexanoate]", "values": [{"measurement": "IC50", "setting": "[4]", "result": 326, "unit": "nM"}, {"measurement": "IC50", "setting": "[5]; 72 hours, read-out: IC50", "result": 135, "unit": "nM"}, {"measurement": "IC50", "setting": "[6]; 72 hours, read-out: IC50", "result": 288, "unit": "nM"}, {"measurement": "IC50", "setting": "[6]; [9]", "result": 288, "unit": "nM"}, {"measurement": "inhibitory activity against HepG2 cells (in words)", "setting": "[1]", "result": "good inhibitory activity"}, {"measurement": "inhibition at 0.1 µM", "setting": "[1]", "result": "50.9 ± 4.44", "unit": "%"}, {"measurement": "inhibition at 1 µM", "setting": "[1]", "result": "73 ± 3.1", "unit": "%"}, {"measurement": "inhibition at 10 µM", "setting": "[1]", "result": "90.6 ± 2.33", "unit": "%"}, {"measurement": "IC50", "setting": "[7]", "result": 174, "unit": "nM"}, {"measurement": "inhibitory activity compared with erianin (in words)", "setting": "[7]; human breast cancer MCF-7 cell strains", "result": "superior to erianin"}, {"measurement": "IC50", "setting": "[8]", "result": 103, "unit": "nM"}, {"measurement": "inhibitory activity compared with erianin (in words)", "setting": "[8]; human gastric cancer SGC7901 cell strains", "result": "superior to erianin"}]}]}
